The METLIN SMRT retention time set (Domingo-Almenara et al. 2019)

Experiment: gradient 5% acetonitrile 3 min, to 50% in 2 min, to 85% in 15 min, held 3 min, 100 µL/min
Conditions: column: Zorbax Extend-C18 2.1 x 50 mm; eluents: water / acetonitrile, 0.1% formic acid
Procedure, shortened: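 Each retention time is based on an adduct peak selected computationally and verified by manual inspection. Measurements used HPLC–quadrupole time-of-flight mass spectrometry in positive and negative ionization mode on mixtures of ~100 pure standards. Chromatography ran on a Zorbax Extend-C18 column (2.1 × 50 mm, 1.8 μm) at 100 μL/min with water and acetonitrile, each containing 0.1% formic acid, and dead and dwell volumes of 40 μL and 900 μL.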

Structure (SMILES)	RP-LC retention time
CCOC(=O)c1c(C)n(-c2ccc(OC)cc2)c2ccc(OCC(N)=O)cc12	909 s
Cc1ccc(CNC(=O)Cn2c(=O)c3nnc(C)n3c3ncccc32)cc1	692 s
CCn1ncc(NC(=O)c2cccc(F)c2)c(N2CCOCC2)c1=O	788 s
Cc1ncsc1C1N(C2CCN(C(=O)c3ccco3)CC2)C(=O)C12CCCC2 (stereo not given)	666 s
Cc1nc(-c2ccc(N3CCN(C(=O)c4ccsc4)CC3)nc2)sc1C	803 s
O=C(c1ccc2oc(=O)n(CC(=O)N3CCc4ccccc43)c2c1)N1CCCCC1	845 s
Cc1ccccc1CNC(=O)C1c2ccccc2CC(=O)N1C(C)C (stereo not given)	827 s
CCOC(=O)C1CCN(C(=O)C2c3cc(OC)c(OC)cc3C(=O)N(C)C2c2cccs2)CC1 (stereo not given)	728 s
Cn1cc(C(=O)NCCN2CCCCC2)c(S(=O)(=O)N2CCN(c3ccc(Cl)cc3)CC2)n1	728 s
COc1ccc(S(=O)(=O)Cc2nc(-c3ccccc3Cl)no2)cc1	966 s
Cc1nnc2c(=O)n(CC(=O)NCc3ccc(F)cc3)c3cccnc3n12	656 s
CCN1CCn2c(nc3cc(C(=O)NCc4ccc(C(F)(F)F)cc4)ccc32)C1=O	741 s
CC(=O)c1cccc(NC(=O)N2CCc3c(c(COc4ccc(F)cc4)nn3C)C2)c1	801 s
COc1ccc(NC(=O)NCCc2cn(C)c3ncccc23)cc1	633 s
O=C(Nc1ccc(F)cc1)C1CCCN(c2nnc3ccc(Cl)cn23)C1 (stereo not given)	689 s
O=C(c1ccc[nH]1)N1CCN(C(=O)c2ccco2)CC1	600 s
CC1Cc2ccccc2N1C(=O)C12CCC(C)(C(=O)O1)C2(C)C (stereo not given)	1000 s
COc1cccc(CNC(=O)N2CCc3nc(-c4ccccc4)sc3C2)c1	891 s
CCOc1ccc(CNC(=O)c2snc(C(=O)NCc3ccccc3Cl)c2N)cc1OCC	1090 s
Cc1nc2cc(-c3noc(C4CC(=O)N(c5cccc(Cl)c5)C4)n3)ccc2o1 (stereo not given)	958 s
COc1ccc(NC(=O)N2C[C@@H]3C[C@H]2C[C@@H]3NC(=O)c2cccs2)cc1F	729 s
O=c1n(Cc2cc(F)cc(F)c2)nc2c(S(=O)(=O)N3CCCC3)cccn12	861 s
CCNC(=O)CN1C(=O)CCCc2cc(S(=O)(=O)N3CCC(C)CC3)ccc21	769 s

Structure (SMILES)	RP-LC retention time
Cc1nc(-c2csc(S(=O)(=O)N3CCCC(C(=O)Nc4ccccc4)C3)c2)no1 (stereo not given)	927 s
O=C(c1ccco1)N1CCN(C(=O)c2c3c(nc4ccccc24)C(=O)N(C2CCCCC2)C3)CC1	727 s
COCCN1C(=O)c2ccccc2C(C(=O)Nc2cccnc2)C1c1cccs1 (stereo not given)	581 s
Cc1ccc(CN2C(=O)NC3(CCN(C(=O)c4ccc5c(c4)OCO5)CC3)C2=O)cc1	819 s
O=C1CC(c2ccc(C(=O)O)cc2)c2scc(-c3cccc(F)c3)c2N1 (stereo not given)	823 s
COc1ccc(Cl)cc1NC(=O)N1CCC(n2cnc3cc(F)ccc3c2=O)CC1	895 s
CC(C)c1noc(C2(NC(=O)CCC3CCCC3)CCCCC2)n1	1120 s
CCCn1c(-c2cccc(C(=O)NC3CCCC3)c2)nc2cccnc21	772 s
Cc1ccc2cc(CCC(=O)NCCN3CCOCC3)c(=O)[nH]c2c1	594 s
Cc1cc(C)cc(NC(=O)c2c(O)c3cccnc3n(-c3ccc(F)cc3)c2=O)c1	803 s
CCNC(=O)C1CCN(S(C)(=O)=O)c2cc(C)ccc2O1 (stereo not given)	696 s
O=C(Cn1ncccc1=O)N1CCN(c2ccc(-c3ccccn3)nn2)CC1	537 s
COc1ccc(-c2c(C(=O)Nc3ccc(C(C)=O)cc3)nc3ccccn23)cc1	939 s
O=C(O)c1cccnc1NCc1cccc(F)c1	655 s
CC(C)(C)OC(=O)COC(=O)c1cn(-c2ccc(F)cc2)c(=O)c2ccccc12	1140 s
Cc1nc(-c2ccccc2)nn1C1CCN(S(=O)(=O)c2cccs2)C1 (stereo not given)	816 s
O=C(CC1CCCC1)NCCC1CCN(C(=O)Nc2ccccc2)CC1	784 s
Cc1ccc(CNC(=O)C2CCCN(c3cnc4nc(C)c(C)nc4c3)C2)cc1 (stereo not given)	741 s
COCCCNC(=O)NC1CCN(c2nc3cccnc3n(Cc3ccccc3)c2=O)CC1	843 s
CC(C)n1cnc2cc(CNC(=O)c3nn(C)c4ccccc34)ccc21	629 s
CCCS(=O)(=O)c1ccc(NCc2ccc(OC)c(OC)c2)nn1	706 s
Cc1ccc(Nc2c(-c3cccc(Cl)c3)nc3cc(C)ccn23)cc1	890 s
COc1ccc(-c2nc(-c3ccc4c(c3)oc(=O)n4C)no2)c(OC)c1	959 s

Structure (SMILES)	RP-LC retention time
CCc1sc(N)nc1-c1ccc(OC)cc1	668 s
CCC(CC)C(=O)N1CCN(Cc2nc3cc(C(=O)N4CCCC4)ccc3n2C)CC1	598 s
CN(C)c1nccnc1OC1CCN(C(=O)c2ccncc2)C1 (stereo not given)	553 s
O=C(Cn1nc(N2CCCCCC2)c2ccccc2c1=O)Nc1ccc(F)cc1	1090 s
CNC(=O)CN1c2ccccc2NC2=C(C(=O)CC(C)(C)C2)C1c1ccc(OC)cc1 (stereo not given)	729 s
COc1ccc(C(=O)N2CCN(c3cc(-c4cccs4)[nH]n3)CC2)cc1F	837 s
Cc1ccc(S(=O)(=O)N2CCN(c3ccc(-c4ccc(F)cc4)nn3)CC2)s1	870 s
Cc1noc([C@@H]2CN(C(=O)c3occc3C)C[C@H]2CO)n1	642 s
CCCn1ccc2sc(C)c(C(=O)NCc3ccc(F)cc3Cl)c2c1=O	1000 s
Cc1cc(NC(=O)Cc2csc(NC(=O)c3ccc(F)cc3)n2)sn1	701 s
CCOC(=O)c1cnc(Nc2nc(C)c3cc(C)cc(C)c3n2)nc1C	657 s
O=S(=O)(NC1CCCCC1)c1ccc2c(c1)-c1oncc1CO2	673 s
O=C(NC1CCCc2ccccc21)c1cc2sccc2n1Cc1ccc(Cl)cc1 (stereo not given)	1320 s
COc1ccc(C(=O)Nc2nccnc2C(=O)NC2CCCCC2)cc1	1040 s
Cc1cc(OCC(=O)Nc2ccc(F)c(Cl)c2)nc(N2CCN(c3ccccc3)CC2)n1	956 s
CCC(C)C(NC(=O)Cc1ccccc1Cl)C(=O)Nc1nc2ccccc2[nH]1 (stereo not given)	776 s
CCCN1CCN(C(=O)CN2C(=O)C3CCCCN3c3ccc(S(=O)(=O)N(C)C)cc32)CC1 (stereo not given)	628 s
Cc1cccc(-c2noc(-c3nn(CC(=O)NC4CCCC4)c4ccccc34)n2)c1	1180 s
Cc1nc2cc(-c3noc(-c4cccc(Br)c4)n3)ccc2o1	1270 s
CCCOc1ccc(Br)cc1-c1cc(-c2ccc(Cl)cc2)[nH]c1-c1ccncc1	1040 s
CSc1cccc(NC(=O)Cn2ncc3c(c2=O)N(CC2CC2)C(=O)CS3)c1	1190 s
CCC1CN(CC(=O)N2CCN(c3ccccn3)CC2)c2ccccc2S1 (stereo not given)	723 s
Cc1noc(C2CN(C(=O)Cc3noc4ccccc34)C2)n1	642 s

Structure (SMILES)	RP-LC retention time
COc1ccc(-c2cc(-c3nc4c5sc6nc(C)cc(C)c6c5ncn4n3)[nH]n2)cc1	1010 s
COCCn1cc(CCNC(=O)Nc2cc(Cl)cc(Cl)c2)c2cccnc21	893 s
COc1ccc(S(=O)(=O)N2CCc3c(c(-c4nnc(-c5ccccc5)o4)nn3C)C2)cc1	909 s
Cc1nn(-c2nc(-c3ccc(F)cc3)cs2)c(C)c1CC(=O)Nc1cccc(Cl)c1	772 s
CC(C)NC(=O)N1CC(c2nc(-c3cccnc3)no2)C2(CCOCC2)C1 (stereo not given)	635 s
CCc1cc(C2CCCN2C(=O)Cc2ccccc2F)on1 (stereo not given)	777 s
COc1ccc(Br)c2c1C(=O)CC2	826 s
Cc1noc(C)c1CC(=O)NCc1cccnc1Oc1ccccc1	734 s
N=C(N)SCCc1ccc(OCc2ccc([N+](=O)[O-])cc2)cc1	787 s
Nc1n[nH]c(-c2ccccc2)n1	619 s
O=C(c1ccc(OCC2CCN(C(=O)C3CCC3)CC2)cc1)N1CCCC1	782 s
CCN1CCN(C(=O)Cn2cccc2-c2nnc(-c3ccccc3)o2)CC1	636 s
Cc1ccc(-c2noc(C3CCCN3S(=O)(=O)c3ccc(Br)s3)n2)cc1 (stereo not given)	1220 s
O=C(NC1CCCCC1)N1CCC2(CC1)NCc1ccccc1-n1ccnc12	608 s
CN1CCCC1c1nc(C2CN(C(=O)c3n[nH]c(=O)c4ccccc34)C2)no1 (stereo not given)	560 s
Cc1ccc(Cn2cccc(S(=O)(=O)N3CCCC3)c2=O)cc1	859 s
O=C(C1CCC1)N1CCc2c([nH]c3ccccc23)C1c1ccc(Cl)cc1 (stereo not given)	1230 s
CCC(=O)NCc1nc2c(n1CC)CN(S(=O)(=O)c1cccc(F)c1)CC2	529 s
COc1ccc(-c2noc(C3(NC(=O)c4cccc(C#N)c4)CCCCC3)n2)cc1	1110 s
Cc1cccc2nc(-c3ccc(N4CCOCC4)cc3)c(Nc3ccc4c(c3)OCCO4)n12	664 s
CCOC[C@@H]1CC(F)(F)CN1C1CCN(Cc2ccc3cc[nH]c3c2)CC1	656 s
